Laboratory results from EP1263420B1 (priority 2000, dated 2001).
Where “and” joins values, the source holds several entries; their conditions need not be identical. Equal entries are not always repeated.

Assays:
RARβ = test: RAR induction in lung of A/J mice exposed to isotretinoin aerosols (Western blot); format: in vivo; conditions: inhaled mid dose isotretinoin, urethane-treated A/J mice, relative to vehicle-exposed
Procedure: (§1) Antibodies: Polyclonal antibodies to RARα, β and γ (Santa Cruz Biotechnology Inc., San Francisco, CA) were used with a BM Chemiluminescence Western Blotting Kit (Mouse/Rabbit) (Boehringer Mannheim Corporation, Indianapolis).
(§2) Experimental Design: Five lungs each from the urethane-treated vehicle, low dose, and mid dose animals were snap frozen in liquid nitrogen and stored at -70°C for determination of RARs α, β and γ by Western Blot Analysis. In addition, five lungs each from urethane-injected unexposed mice, and untreated control mice were designated for Westerns. The lungs were homogenized and the RARs were determined by standard Western Blotting (21, 22). Due to deaths early in the high dose experiment, no lungs were available for Western Blot Analysis for the high dose exposures, i.e. all tissue was used for lesion quantitation purposes.
(§3) Samples: Lung tissue was collected, frozen on dry ice and kept at -70°C until used. A 500 mg portion was diced in small pieces and homogenized in 300 µl of cold PBS using a hand held homogenizer for 2-3 min. Samples were centrifuged at 500 rpm for 5 min or until the supernatant was clear. The pellet was suspended in 400 µl of cold Buffer A [2 µl 0.5 M EDTA, 10 µl 1 mM EGTA, 50 µl 100 mM PMSF, 10 µl 1M DTT, 10 ml (10 mM HEPES pH 7.9 + 10 mM KCl)], and left at ice temperature for 15 min. A 25 µl volume of 10% solution of NP-40 was added and the samples were mixed in a vortex vigorously for 10 sec. Samples were centrifuged at 14,000 rpm for 1 min at 4°C and the pellet was treated once more in this fashion. The supernatant was removed and 25 - 100 µl of Buffer C [4 µl 0.5 M EDTA, 20 µl 100 mM EGTA, 20 µl 0.1 M PMSF, 2 µl 1 M DTT, 2 ml (20 mM HEPES pH 7.9 + 0.4M NaCl)] was added. Pellets were resuspended by tapping gently on the bottom of the Eppendorf tube. Samples were rocked vigorously in a bucket of ice on an orbitor shaker for 30 min. Samples were centrifuged at 14,000 rpm for 5 min at 4°C. Supematants were kept frozen at -70°C until needed. Protein concentration determination was conducted by the Bradford method (23). […]

RARγ = test: as above; format: in vivo; conditions: inhaled mid dose isotretinoin, urethane-treated A/J mice, relative to vehicle-exposed
Procedure: as §1, §2, §3

RARα = test: as above; format: in vivo; conditions: inhaled mid dose isotretinoin, urethane-treated A/J mice, relative to vehicle-exposed
Procedure: as §1, §2, §3

[1] = system: urethane-induced lung cancer; conditions: orally administered, over 300 mg/kg weekly; cited from earlier work
RARs = test: RAR induction in lung of A/J mice exposed to isotretinoin aerosols, all three RARs; format: in vivo; conditions: lungs exposed to mid levels of isotretinoin, urethane-treated mice
Procedure: as §1, §2
Samples: Lung tissue was collected, frozen on dry ice and kept at -70°C until used. A 500 mg portion was diced in small pieces and homogenized in 300 µl of cold PBS using a hand held homogenizer for 2-3 min. Samples were centrifuged at 500 rpm for 5 min or until the supernatant was clear. The pellet was suspended in 400 µl of cold Buffer A [2 µl 0.5 M EDTA, 10 µl 1 mM EGTA, 50 µl 100 mM PMSF, 10 µl 1M DTT, 10 ml (10 mM HEPES pH 7.9 + 10 mM KCl)], and left at ice temperature for 15 min. […]

TGase II = TGase II assay of rat lung tissue after inhaled 13-cis RA (experiment B); format: in vivo; conditions: for TGase II assay / TGase II assay DPM/µg protein: rat lung
Procedure: Male rats (n=23) (Sprague-Dawley from Charles River) were divided into six experimental groups and were given varying amounts of 13-cis RA through an inhalant apparatus once daily for different times each day for 14 days. The experimental groups were as follows (Table 1) :1.Vehicle control : rats (3) inhaled vehicle for 240 minutes; 2. Low dose 13-cis RA: rats (4) inhaled a solution containing 13-cis RA at a concentration of 62.2µg/liter (inhaled dose 115.0µg/kg body weight) in 5 minutes; 3. Low-Middle dose 13-cis RA : rats (4) inhaled a solution containing 13-cis RA at a concentration of 62.2µg/liter (inhaled dose 334.4µg/kg body weight) in 15 minutes; 4.Middle dose 13-cis RA: rats (4) inhaled a solution containing 13-cis RA at a concentration of 62.2µg/liter (inhaled dose 1012.3µg/kg body weight) in 45 minutes; 5. Middle-High dose 13-cis RA : rats (4) inhaled a solution containing 13-cis RA at a concentration of 62.2µg/liter (inhaled dose 2843.4µg/kg body weight) in 120 minutes; 6. High dose 13-cis RA : rats (4) inhaled a solution containing 13-cis RA at a concentration of 62.2µg/liter (inhaled dose 5935.6µg/kg body weight) in 240 minutes. […]
Enzyme assay mixtures were prepared by adding 80µl of SUBSTRATE mixture (322.8µl H2O, 120µl 0.5M NaBorate, 60µl 0.01M EDTA, 60µl 0.1M CaCl2, 6µl 1M DTT, 240µl dimethyl casein, 30µl Triton X-100, 1.2µl [^3H]-Putrescine, 120µl Putrescine) to 20µl sample, 20µl scraping buffer for blank control , 20 µl (18µl scraping buffer + 2µl TGase II) for positive control. Samples were mixed in 15ml tubes, the tubes were shaken before putting them into a 28°C water bath for 30 minutes. Reactions were slowed down in an ice bath. 80µl of the incubation mixture was adsorbed onto paper disks. These were immediately dropped into cold 10% TCA (0.1% Putrescine) and washed with agitation for 7 minutes, followed by 2 additional washes with 5% TCA (0.05% putrescine) for 5~7 minutes, and once more with cold (-20°C) 95% ethanol for 5 minutes. Paper disks were dried and placed into 5ml Aquasol, and counted in a Liquid Scintillation Counter. Protein concentration determination was conducted by the Bradford method.

[2] = High: 240 minutes daily 14 Days, 1872µg/kg total deposited dose
[3] = Low-Middle: 15 minutes daily 14 Days, 117µg/kg total deposited dose
[4] = Middle-High: 120 minutes daily 14 Days, 936µg/kg total deposited dose
[5] = Middle: 45 minutes daily 14 Days, 351µg/kg total deposited dose

CC1=C(/C=C/C(C)=C/C=C/C(C)=C\C(=O)O)C(C)(C)CCC1 [13-cis RA, 13-cis-Retinoic Acid]
upregulated lung tissue RAR β over solvent (RARβ): 3.3 fold
upregulated lung tissue RAR γ over solvent (RARγ): 3.7 fold
upregulated lung tissue RAR α over solvent (RARα): 3.9 fold
prevention of urethane-induced lung cancer [1]: failed to prevent urethane-induced lung cancer
induction of all three RARs (RARs): at least three fold
stimulation of lung TGase II activity (TGase II; maximum, inhaled dose of 1012.3µg/kg, 45 minutes of inhalation, 14 days): 2.9 Fold
TGase II assay (TGase II; [2]): 0.1025 +/- 0.004 picomoles/µg protein/30 min and 0.1025 ± 0.004 picomoles/µg protein/30 min
TGase II assay DPM/µg protein (TGase II; [2]): 8053 DPM/µg protein
TGase II assay (TGase II; [3]): 0.1150 +/- 0.006 picomoles/µg protein/30 min and 0.1150 ± 0.006 picomoles/µg protein/30 min
TGase II assay DPM/µg protein (TGase II; [3]): 9035 DPM/µg protein
TGase II assay DPM/µg protein (TGase II; Low: 5 minutes daily 14 Days, 39µg/kg total deposited dose): 7503 DPM/µg protein
TGase II assay (TGase II; Low: 5 minutes daily 14 Days, 39µg/kg total deposited dose, vehicle 0.0450): 0.0955 +/- 0.004 picomoles/µg protein/30 min and 0.0955 ± 0.004 picomoles/µg protein/30 min
TGase II assay (TGase II; [4]): 0.1020 +/- 0.005 picomoles/µg protein/30 min and 0.1020 ± 0.005 picomoles/µg protein/30 min
TGase II assay DPM/µg protein (TGase II; [4]): 8014 DPM/µg protein
TGase II assay (TGase II; [5]): 0.1330 +/- 0.009 picomoles/µg protein/30 min
TGase II assay DPM/µg protein (TGase II; [5]): 10449 DPM/µg protein
stimulation of lung TGase II activity (TGase II; with larger amounts of inhaled retinoid): 1.2 fold
